Experimental data reported in patent US20060135510A1 (The Trustees of the University of Pennsylvania, priority 2004, published 2006).

Legend:
[1] = test system: REF; assay: Clonogenic assay, radiation sensitization of REF cells; assay type: cell-based; conditions: control SF2 0.408 +/− 0.040
Experimental: (§1) Cultures of cells in log growth phase were counted and plated in 60-mm dishes containing 4 ml of media. […] Cells were irradiated with a Mark I cesium irradiator (J. L. Shepherd, San Fernando, Calif.) at a dose rate of 1.6 Gy/min. Colonies were stained and counted 10-14 days after irradiation. A light box was used to assist in counting colonies. The surviving fraction was calculated by dividing the number of colonies formed by the number of cells plated times plating efficiency (Table 1). Each point value represents the mean surviving fraction from at least six replicate dishes.

[2] = test system: SQ20B cells; assay: Clonogenic assay, radiosensitization of SQ20B cells; assay type: cell-based, human
Experimental: Cultures in log growth phase were counted and plated in 60-mm dishes containing 4 ml of media. The cells were allowed to attach and inhibitors were added to cultures at least one hour prior to radiation. Cells were irradiated with a Mark I cesium irradiator (J. L. Shepherd, San Fernando, Calif.) at a dose rate of 1.6 Gy/min. Colonies were stained and counted 10-14 days after irradiation. Typically, at least 6 dishes are prepared at each dose level of radiation.
as §1

[3] = test system: SQ20B xenograft tumors; assay: In vivo to in vitro clonogenic assay in nude mice with SQ20B tumors; parameters: species or system mouse; conditions: osmotic pump placed 2 days prior, 8 Gy, FIG. 11
Experimental: The mice in the study had SQ20B xenograft tumors on a hind leg. The pump was placed into the mouse 2 days prior to experiment. On the day of the experiment, the mouse was anesthetized and irradiated to 8 Gy. The tumor was then harvested and a cell suspension made. The cells were plated and the plating efficiency determined to indicate the number of cells that were viable and able to reproduce by forming colonies in each individual group (plating efficiency).
FIG. 8 illustrates the results of an in vivo to in vitro clonogenic assay in nude mice with SQ20B tumors.

[4] = Amprenavir by pump + 8 Gy vs 8 Gy alone, right hind leg
[5] = test system: A549; assay: Clonogenic assay, radiation sensitization of A549 cells; assay type: cell-based; conditions: control SF2 0.570 +/− 0.042
Experimental: as §1

[6] = test system: T24; assay: Clonogenic assay, radiation sensitization of T24 cells; assay type: cell-based, human; conditions: control SF2 0.560 +/− 0.061
Experimental: as §1

[7] = test system: MIAPACA2; assay: Clonogenic assay, radiation sensitization of MIAPACA2 cells; assay type: cell-based; conditions: control SF2 0.906 +/− 0.086
Experimental: as §1

[8] = test system: Akt; assay: Western blot analysis of Akt phosphorylation in SQ20B cells; assay type: cell-based, human
Experimental: Using Western blot analysis, a human head-and-neck cancer cell line, SQ20B, (American Type Culture Collection; Manassas, Va.) containing a constitutively-active EGFR receptor and thus, increased signaling through PI3K, was examined for Akt phosphorylation.
Cells were lysed without trypsinization by rinsing culture dishes once with PBS followed by lysis with reducing Laemeli sample buffer. Samples were boiled, sheared, and clarified by centrifugation and stored at −20° C. […] Membranes were blocked in PBS containing 0.1% Tween-20 and 5% powdered milk before primary antibody addition. The dilution of the primary antibody was 1:2000. Antibody binding was detected using the ECL chemiluminescence kit (Amersham, Arlington Heights, Ill.). Images were digitized using an Arcus II scanner, and figures were assembled using Adobe Photoshop 3.0 and Microsoft Power Point programs.

[9] = dose of about 1200 mg bid; cited from earlier work

Structure (SMILES): CC(C)CN(C[C@@H](O)[C@H](Cc1ccccc1)NC(=O)O[C@H]1CCOC1)S(=O)(=O)c1ccc(N)cc1 [Amprenavir, amprenavir]
- Amprenavir SF2 [1]: 0.402 +/− 0.136
- survival difference in cell kill numbers ([2]; 30 fractions of 2 Gy, SF2 0.51 vs 0.7): ~4 log
- surviving fraction after 2 Gy (SF2) ([2]; SQ20B cells, 5 μM Amprenavir + 2 Gy radiation, control 70% (FIG. 6)): 51%
- Amprenavir SF2 ([2]; SQ20B, control SF2 0.691 +/− 0.042): 0.432 +/− 0.017
- survival value after 30 fractions of 2 Gy ([2]; calculated from SF2 0.51, without drug 2.25×10^−5): 1.68×10^−9
- cell kill, combination of radiation and Amprenavir ([2]; clonogenic assay in vitro, FIG. 7): increase cell kill
- cell kill, combination of radiation and Amprenavir [3]: significant increase in cell kill
- leg contracture or fibrosis [4]: No differences
- Amprenavir SF2 [5]: 0.487 +/− 0.030
- Amprenavir SF2 [6]: 0.370 +/− 0.022
- Amprenavir SF2 [7]: 0.664 +/− 0.051
- signaling in the Ras pathway ([8]; FIG. 4, SQ20b cells and T24 cells): inhibits
- phosphorylation of Akt at Ser 473 ([8]; SQ20B cells, 10 μM Amprenavir, Western blot): down-regulation
- phosphorylation of Akt at the Thr 308 site ([8]; SQ20B cells, 10 μM or 20 μM Amprenavir): no change
- phosphorylation of Akt at Ser 473 ([8]; SQ20B cells, 20 μM Amprenavir, Western blot (FIG. 3 and FIG. 5)): abolished
- peak plasma concentration [9]: 15.1 µM
- trough plasma concentration [9]: 0.63 µM
